Measurements as given in publication PMC6522510 (Nature Communications, 2019).

Columns and labels:
Design in all cases: species or system AML cell lines (8); Primary HTS, single concentration about 10 uM, Cell Titer Glo viability; log10 luminescence, per cent inhibition relative to cycloheximide control
Conditions in all cases: 72 h, relative to cycloheximide control, log10 luminescence; inhibitor
M07e = test system: M07e
CMS = test system: CMS
CHRF288-11 = test system: CHRF288-11
ML-2 = test system: ML-2
CMK = test system: CMK
MOLM-13 = test system: MOLM-13
U937 = test system: U937
MV4-11 = test system: MV4-11

Row | Compound | M07e %inh (M07e) [%] | CMS %inh (CMS) [%] | CHRF288-11 %inh (CHRF288-11) [%] | ML-2 %inh (ML-2) [%] | CMK %inh (CMK) [%] | MOLM-13 %inh (MOLM-13) [%] | U937 %inh (U937) [%] | MV4-11 %inh (MV4-11) [%]
1 | COc1cc[nH]c1/C=C1\C(=O)Nc2ccccc21 [SJ000581028-1] | 0.1646 | -2.846 | 5.171 | 2.572 | 2.429 | 93.27 | -1.475 | 72.48
2 | Cn1cc(C2=C(c3cn(CCCN)c4ccccc34)C(=O)NC2=O)c2ccccc21 [SJ000581029-1, RO 31-7549] | -0.4351 | -0.005694 | 63.26 | -0.6707 | 7.447 | 8.447 | 0.8505 | 2.189
3 | COc1cc(F)c(F)cc1C(=O)c1cnc(NC2CCN(S(C)(=O)=O)CC2)nc1N [SJ000581030-1] | 10.16 | 6.337 | 9.313 | 12.87 | 33.04 | 17.32 | 15.86 | 13.02
4 | Cc1ccccc1-n1ncc(C(=O)c2ccccc2)c1N [SJ000581031-1] | 0.1374 | -2.229 | -2.402 | 1.074 | -0.4181 | 0.4251 | 4.01 | -0.9776
5 | Cn1c(=O)c(Cc2ccc(F)cc2F)cc2cnc(NC3CCOCC3)nc21 [SJ000581032-1] | 1.669 | 0.5188 | -3.947 | 0.882 | 3.89 | 4.514 | -0.7764 | 0.6569
6 | Nc1c(C(=O)c2cccc(CCCN3CCOCC3)c2)cnn1-c1ccc(F)cc1 [SJ000581033-1] | 1.168 | -0.1935 | 0.5002 | 2.815 | -2.511 | -0.1425 | 0.5296 | -0.6007
7 | O=C1NC(=NCCc2ccccc2Cl)S/C1=C\c1ccc2ncccc2c1 [SJ000581034-1] | 0.7717 | 1.664 | -2.34 | 3.879 | -2.328 | 1.218 | 0.6904 | -0.3328
8 | CSc1c(C2=C(c3cn(C)c4ccccc34)C(=O)NC2=O)c2ccccc2n1C [SJ000581035-1] | 31.51 | 16.27 | 9.742 | 21.47 | 87.18 | 28.45 | 26.62 | 31.9
9 | CN(C)CC#Cc1cccc(C(=O)c2cnn(-c3ccc(F)cc3)c2N)c1 [SJ000581036-1] | 2.548 | 3.514 | -3.732 | 0.4348 | 1.135 | 29.95 | 6.781 | 0.9409
10 | Nc1c(C(=O)c2cccc(-c3cccnc3)c2)cnn1-c1ccc(F)cc1 [SJ000581038-1] | 5.379 | 0.2916 | -0.1911 | 2.13 | -3.194 | 1.631 | 0.8257 | 1.728
11 | O=c1c(Oc2ccc(F)cc2F)cc2cnc(NC3CCOCC3)nc2n1C1CC1 [SJ000581039-1] | 4.212 | 3.291 | 6.117 | 0.3273 | 4.979 | 0.2345 | -0.2909 | 3.055
12 | Cn1cc(C2=C(c3c([S+](C)[O-])n(C)c4ccccc34)C(=O)NC2=O)c2ccccc21 (stereo not drawn) [SJ000581040-1] | 1.342 | 0.8019 | 12.43 | 2.43 | -2.072 | -1.878 | 0.5237 | 0.5816
13 | Cn1cc(C2=C(c3cn(CCO)c4ccccc34)C(=O)NC2=O)c2ccccc21 [SJ000581041-1] | 13.99 | 9.772 | 72.88 | 20.21 | 80.06 | 54.73 | 14.77 | 18.13
14 | Cn1c(=O)c(Oc2ccc(F)cc2F)cc2cnc(NC3CCC(O)CC3)nc21 (stereo not drawn) [SJ000581046-1] | 1.519 | -2.545 | 5.265 | 1.601 | -4.641 | 1.486 | 2.264 | -0.7465
15 | CC(C)(O)CCc1cccc(C(=O)c2cnn(-c3ccc(F)cc3)c2N)c1 [SJ000581047-1] | 3.158 | 5.394 | 1.391 | 1.278 | -5.065 | -1.69 | -2.635 | -0.34
16 | Cc1[nH]n(-c2ccccc2)c(=O)c1C(=O)c1ccccc1 [SJ000581048-1] | -0.3361 | 1.313 | 3.222 | 0.679 | -9.373 | -1.767 | -0.7202 | -2.724
17 | O=C1NC(=NCc2c(Cl)cccc2Cl)S/C1=C\c1ccc2ncccc2c1 [SJ000581049-1] | 1.964 | 2.314 | -0.3937 | 1.063 | -7.089 | 5.37 | 5.41 | -1.821
18 | COc1cccc(C2=C(c3cn(C)c4ccccc34)C(=O)NC2=O)c1 [SJ000581051-1] | 5.285 | 3.466 | 11.8 | -0.8075 | -3.208 | 1.318 | -2.854 | 1.602
19 | Cc1nc2sc3c(N)ncnc3c2c(C)c1C [SJ000581052-1] | 0.5709 | 0.007081 | 5.518 | 0.8474 | -9.059 | 0.3678 | 1.552 | -2.527
20 | Cn1cc(C2=C(n3ccc4ccccc43)C(=O)NC2=O)c2ccccc21 [SJ000581055-1] | -0.4303 | 4.23 | 24.92 | -0.8882 | -4.048 | -2.803 | -2.193 | -2.255
21 | CC(=O)N[C@@H](Cc1ccc(OP(=O)(O)O)cc1)C(=O)N[C@H]1CCC(=O)N2CCC[C@@H](C(=O)NCc3ccc(Cl)cc3)N2C1=O [SJ000581056-1] | -0.4557 | 0.4986 | 0.8967 | -0.961 | -8.834 | -1.276 | -1.499 | -2.949
22 | C[C@H](CS(C)(=O)=O)Nc1ncc2cc(Oc3ccc(F)cc3F)c(=O)n(C)c2n1 [SJ000581059-1] | 5.493 | 4.304 | 14.97 | 1.6 | -5.286 | -1.998 | 2.611 | -0.5733
23 | C[C@@H](CS(C)(=O)=O)Nc1ncc2cc(Oc3ccc(F)cc3F)c(=O)n(C)c2n1 [SJ000581059-2] | 9.03 | 1.072 | 4.121 | -1.135 | 2.224 | 1.811 | 2.114 | 3.472
24 | Fc1ccc(-c2c(-c3ccncc3)n(CCN3CCOCC3)c3cccnc23)cc1 [SJ000581060-1] | 4.186 | 2.843 | 10.61 | 0.7421 | -1.956 | -2.603 | 3.3 | -0.5528
